Literature values, collected in patent US20180318246A1 (SUN PHARMACEUTICAL INDUSTRIES LIMITED, priority 2015, published 2018).
Counter-ions that a name gives are not always drawn.

SMILES: COC(=O)/C=C/C(=O)OC [dimethyl fumarate]
- Permeability coefficient compared with monomethyl fumarate: significantly higher
